Measurements: patent US7645793B2, “Injectable pharmaceutical formulations” (Shionogi & Co., Ltd., priority 2001, dated 2010)

Experiments:
Type in all cases: physicochemical
[1] = Determination of surface tension by Wilhelmy method
Method: A compound to be determined that has been weighed is dissolved or suspended in a defined amount of a distilled water. As such, samples of aqueous solutions to be tested containing the compound at various concentrations are prepared, and each of the solutions is adjusted to be 50 ml aliquots.
Surface tension-measuring device (Kruess Inc., Type K12) and the personal computer for control and analysis are started, and a software for determining surface tension (Kruess Inc., K122) is launched. The determination site of the device is subjected to the circulation of the water from a thermostatic chamber to keep the temperature constant at 25° C. […]
(§1) Forty ml of a distilled water is poured into the vessel that have been washed, and the vessel is placed into the surface tension-measuring device. […] In this condition, surface tensions are determined. […] When the value of surface tension as determined one minute later is almost constant, then the value is recorded and the determination is stopped.
as §1, with “After the blank determination, 40” for “Forty”, “sample of aqueous solutions” for “distilled water”, “stopped. […]” for “stopped.”

[2] = Storage stability of lyophilized formulation, HPLC of content and decomposed materials
Method: After the formulation as prepared according to Example 1 was stored at 50° C. for 2 months, the amounts of decomposed materials produced by hydrolysis were determined and compared. Typical decomposed materials are:
The relationship of the contents of compound 1, the amounts of the decomposed materials, and the added amounts of D-mannitol comprised in between the formulation before the storage and that after the storage at 50° C. for 2 months, is shown in Table 2. The determination was conducted using high performance liquid chromatography (HPLC). The determination conditions of HPLC are as shown below: • Device: Waters 600E,484,712 wisp,74 1,FD20A • Column: J'sphere ODS-L80, S-4μm, 80A 150×4.6 mmφ • Moving phase: water/acetonitrile/acetic acid=100/100/1 • Flow rate: 1.0 ml/min • Injected volume: • 20 μL (at the time for determination of impure materials) • 10 μL (at the time for determination of compound 1) • Detection wavelength • 275 nm • Detection sensibility (AUFS): • 0.64 (at the time for determination of impure materials) • 0.20 (at the time for determination of compound 1) • Solvent for dilution of samples: • water/acetonitrile/acetic acid=100/100/1 • Concentration of samples • 1 mg/ml (at the time for determination of impure materials) • 60.0 μg/ml (at the time for determination of compound 1)

[3] = Ross-Miles Foaming Test (foaming vs pH); details: 0.1% w/w in water for injection, 25° C., ISO 696-1975
Method: Compound 1 was dissolved in a water for injection (0.1% w/w), and the solution was quantitatively determined for foaming by Ross-Miles Foaming Test. Ross-Miles Foaming Test was conducted according to the method as defined in International Standard ISO 696-1975 except that the determination temperature was set 25° C.

[4] = D-mannitol 0% of the weight of compound 1
[5] = D-mannitol 25% of the weight of compound 1
[6] = D-mannitol 50% of the weight of compound 1
[7] = D-mannitol 100% of the weight of compound 1

Structure (SMILES): CC1(C)CC[C@]2(C(=O)[O-])CC[C@]3(COC(=O)/C=C/c4cc(O)ccc4NC(=O)/C=C/C(=O)[O-])C(=CC[C@@H]4[C@@]5(C)CCC(=O)C(C)(C)[C@@H]5CC[C@]43C)[C@@H]2C1.[Na+].[Na+] [compound 1]
- surface tension ([1]; 37.6 mM solution of compound 1 in water, 25° C., Wilhelmy method): 53.9±0.2 mN/m
- decrease in surface tension, pH 9.5 vs pH 7 to 7.5 ([1]; aqueous solutions at various concentrations, pH 9.5 adjusted with sodium hydroxide, FIG. 1): the decrease in the surface tension is inhibited at pH 9.5 more than that at pH7 to 7.5
- Content of compound 1 (after storage at 50° C. for 2 months) [2, 4]: 97.1 ± 0.1%
- amount of Other related compounds, After storage at 50° C. for 2 months [2, 4]: 0.66 ± 0.14%
- amount of Other related compounds, Before storage [2, 4]: 0.32 ± 0.02%
- amount of decomposed material compound A, After storage at 50° C. for 2 months [2, 4]: 1.71 ± 0.08%
- amount of decomposed material compound A, Before storage [2, 4]: 0.26 ± 0.02%
- Content of compound 1 (after storage at 50° C. for 2 months) [2, 5]: 97.9 ± 0.4%
- amount of Other related compounds, After storage at 50° C. for 2 months [2, 5]: 0.87 ± 0.02%
- amount of Other related compounds, Before storage [2, 5]: 0.33 ± 0.03%
- amount of decomposed material compound A, After storage at 50° C. for 2 months [2, 5]: 0.44 ± 0.01%
- amount of decomposed material compound A, Before storage [2, 5]: 0.13 ± 0.01%
- Content of compound 1 (after storage at 50° C. for 2 months) [2, 6]: 98.0 ± 0.1%
- amount of Other related compounds, After storage at 50° C. for 2 months [2, 6]: 0.89 ± 0.05%
- amount of Other related compounds, Before storage [2, 6]: 0.32 ± 0.02%
- amount of decomposed material compound A, After storage at 50° C. for 2 months [2, 6]: 0.24 ± 0.01%
- amount of decomposed material compound A, Before storage [2, 6]: 0.11 ± 0.01%
- Content of compound 1 (after storage at 50° C. for 2 months) [2, 7]: 98.3 ± 0.1%
- amount of Other related compounds, After storage at 50° C. for 2 months [2, 7]: 1.24 ± 0.05%
- amount of Other related compounds, Before storage [2, 7]: 0.31 ± 0.01%
- amount of decomposed material compound A, After storage at 50° C. for 2 months [2, 7]: 0.23 ± 0.02%
- amount of decomposed material compound A, Before storage [2, 7]: 0.11 ± 0.01%
- foaming by Ross-Miles Foaming Test in relation to pH [3]: the foaming was inhibited depending on the increase in pH
